Results taken from patent publication US20120053112A1, “METHODS AND COMPOSITIONS RELATED TO THE REGULATION OF GOBLET CELL DIFFERENTIATION, MUCUS PRODUCTION AND MUCUS SECRETION” (CHILDREN'S HOSPITAL MEDICAL CENTER, priority 2009, published 2012).
Values joined by “and” are separate entries in the source; they are usually repeats but may differ in a detail not shown here. Identical values can stand only once. “Also recorded” adds a separate entry of the source.

B1: IL-13: mouse IL-13 cytokine purchased from R&D System, used for in vitro culture (protein, UniProt P20109 19-131, looked up)
Interleukin-13: APGPVPRSVSLPLTLKELIEELSNITQDQTPLCNGSMVWSVDLAAGGFCVALDSLTNISNCNAIYRTQRILHGLCNRKAPTTVSSLPDTKIEVAHFITKLLSYTKQLFRHGPF

Legend:
[1] = test system: MUC5AC mRNA in Flag-SPDEF-GFP HBEC cells; test: Effect of inhibitors on MUC5AC expression in SPDEF-expressing HBEC cells on air-liquid interface (real-time PCR); format: cell-based, human; settings: for Concentration of dose curve with no detection of MUC5AC mRNA (starred): Flag-SPDEF-GFP HBEC on ALI, inhibitor added upon induction of ALI, RNA after 48 hours, TAQMAN real-time PCR, FIG. 19; for Inhibitor concentrations at which MUC5AC mRNA was not detected: SPDEF-expressing HBEC cells
Protocol: Inhibitors were added to media upon induction of ALI and RNA was isolated after 48 hours. (A) p38 MAPK inhibitor (SB239063) dose curve: 0.5, 1, 2.5, 5*, 10* μM. (B) PI3K inhibitor (LY294002) dose curve: 0.5, 1, 2.5, 5*, 10*, 25* μM. (C) mTor inhibitor (Rapamycin) dose curve: 1, 5, 10, 25, 50*, 100* nM. *=No detection of MUC5AC mRNA at these concentrations as determined by TAQMAN® real-time PCR (Applied Biosystems, Foster City, Calif.).
Expression levels of MUC5AC were measured in SPDEF-expressing HBEC cells treated with the p38 MAPK inhibitor SB239063. MUC5AC mRNA was quantitated by QRT-PCR. MUC5AC mRNA was not detected at inhibitor concentrations ≧5 uM.
Expression levels of MUC5AC in SPDEF-expressing HBEC cells treated with rapamycin. MUC5AC mRNA was not detected at inhibitor concentrations ≧50 nM.
Expression levels of MUC5AC in SPDEF-expressing HBEC cells treated with the PI3K inhibitor LY294002. MUC5AC mRNA was not detected at inhibitor concentrations ≧[…].
Using Agr2 as a readout of SPDEF, the effects of p38 MAPK inhibitor SB239063, PI3K inhibitor LY294002, and mTor inhibitor rapamycin in human bronchiolar epithelial cells (HBEC) were investigated. In vitro preparations were maintained at the ALI for 48 hours prior to taking Agr2 measurements.
To test for small molecule inhibitors, HBEC cells expressing lentiviral SPDEF constructs were treated with the p38 MAP kinase inhibitor, SB239063. MUC5AC mRNA was quantitated by QRT-PCR. SPDEF-dependent MUC5AC mRNA was inhibited by the p38 MAP kinase inhibitor (FIG. 22).

[2] = test system: mouse Agr2 1.6 Kb promoter; settings: U0126 at 20 μM and 10 μM; 36 hour transfection, aSTEpC; DMSO vehicle control
Protocol: Thirty-six hour transfection of adult sheep tracheal epithelial cells (aSTEpC) with Agr2-luciferase and expression vectors encoding SPDEF and Foxa3. MAPK inhibitor (U0126) was added at a concentration of 20 μM and 10 μM (DMSO as vehicle control).
Thirty-six hour transfection of adult sheep tracheal epithelial cells (aSTEpCs) with Agr2-luciferase and expression vectors encoding SPDEF and Foxa3 were performed. A MAPK inhibitor (U0126) was added at a concentration of 20 μM and 10 μM (using DMSO as a vehicle control). MAPK inhibitor (U0126) effects on the activity of the mouse Agr2 1.6 Kb promoter were analyzed.
Promoter reporter constructs were co-transfected into primary sheep tracheal epithelial cells (aSTEpC) with CMV-13-Gal plasmid (Clontech, Palo Alto, Calif.) and/or transcription factor expression plasmid using Lipofectamine 2000 (Invitrogen, Carlsbad, Calif.) as previously described^6. Growth media was changed into a differentiation media (MTEC/Nu, mouse tracheal epithelial cells culture media, 2% Nu serum)^39 after transfection. Cell lysates were collected for luciferase activity assay 24 hours after transfection. All transfection assays were performed with primary sheep adult tracheal epithelial cells at passage 3 or 4. Relative promoter activities were normalized to transfection efficiency assayed by β-galactosidase activity and shown as mean±S.D.

[3] = test system: SPDEF in primary mouse tracheal epithelial cells; test: IL-13 induction of SPDEF in primary mouse tracheal epithelial cells at air-liquid interface (immunohistochemistry); format: cell-based; settings: IL-13 10 ng/ml; ALI culture, 3 and 7 days; FIG. 14
Protocol: Immunohistochemical staining of SPDEF in primary mouse tracheal epithelial cells cultured under an air-liquid interface (ALI) condition in the presence or absence of IL-13 (10 ng/ml). Expression of SPDEF was detected after 3 days (upper panel) and 7 days (lower panel) after ALI culture. Scale bar: 50 μm.
The air-liquid interface culture of mouse tracheal epithelial cells was performed as previously described^39. The mouse IL-13 used for in vitro culture was purchased from R&D System (Minneapolis, Minn.). The air-liquid interface culture of the HEBCs was similar to procedures previously described^40.

Molecule	Concentration of dose curve with no detection of MUC5AC mRNA (starred) [1]	Inhibitor concentrations at which MUC5AC mRNA was not detected ([1]; QRT-PCR, FIGS. 22, 25)	also measured
CO[C@H]1C[C@@H]2CC[C@@H](C)[C@@](O)(O2)C(=O)C(=O)N2CCCC[C@H]2C(=O)O[C@H]([C@H](C)C[C@@H]2CC[C@@H](O)[C@H](OC)C2)CC(=O)[C@H](C)/C=C(\C)[C@@H](O)[C@@H](OC)C(=O)[C@H](C)C[C@H](C)/C=C/C=C/C=C/1C [Rapamycin]	50 nM and 100 nM	–	Inhibitor concentrations at which MUC5AC mRNA was not detected ([1]; FIG. 24): ≥ 0.05 µM
N#CC(=C(/N)Sc1ccccc1N)/C(C#N)=C(\N)Sc1ccccc1N [U0126]	–	–	Effect on activation of SPDEF or Agr2 (Agr2 promoter luciferase activity) [2]: inhibited
COc1nccc(-c2c(-c3ccc(F)cc3)ncn2C2CCC(O)CC2)n1 (centres unmarked) [SB239063]	5000 nM and 10000 nM	≥ 5 µM	Effect on SPDEF-mediated MUC5AC (Muc5A/C) activation / mRNA ([1]; HBEC in vitro, result in words): highly active; also recorded: inhibited
O=c1cc(N2CCOCC2)oc2c(-c3ccccc3)cccc12 [LY294002]	–	≥ 10 µM	–
B1	–	–	SPDEF expression [3]: dramatically induced
